Source: US11834401B2, “Treating and preventing diseases by modulating cell mechanics” (THE JOHNS HOPKINS UNIVERSITY, priority 2013, dated 2023)

Assays:
[1] = tested on: NLS-tdTomato expressing Dictyostelium cells; settings: for CIMPAQ hit category, kinase inhibitor collection / CIMPAQ hit category, ion channel collection: BIOMOL pilot screen; for CIMPAQ hit category, kinase inhibitor collection: 84 protein kinase inhibitors; for CIMPAQ hit category, ion channel collection: 70 ion channel inhibitors
Experimental: NLS-tdTomato expressing Dictyostelium cells were challenged with […] compounds from the ChemBridge Divert-SET library and imaged over three days. Raw data was segmented by CIMPAQ, a designed analytical platform, which rank ordered hits based on their cytokinesis or mitotic inhibitory activity, or lethality. Hits were confirmed through a dose-dependent secondary screening.
Ax3::NLS-tdTomato cells were plated on 384-well COP plates with a MicroFloSelect microplate dispenser (BioTek, Winooski, Vt.) at volumes of 80 μl with a cell concentration of 1000 cells/ml for the 24- and 48-hr time points and at the same volume with a cell concentration of 220 cells/ml for the 72-hr time point. Each plate contained four rows of untreated cells with 0.2% DMSO. For the remaining wells, […] of each small molecule maintained at the Johns Hopkins ChemCORE facility, was added, with a final DMSO concentration of 0.2%. Almost half of the ChemBridge Divert-SET library, which is a 50,000 compound chemical diversity library, was screened over a three-day period on a Becton Dickinson Pathway 855 Bioimager System using a 20× objective (NA 0.75). Each image consisted of a montage of four images collected around the center of the well, resulting in a total size of 1344×1024 pixels per image.
Secondary chemical screening was carried out in quadruplicate, with identical culturing conditions as to the primary screen. 14 mM stocks of each compounds dissolved in 100% DMSO were diluted to the following final concentrations: […], 3.5 nM, 35 nM, 350 nM, 3.5 μM, and 35 μM.
Raw image files from both the primary and secondary screening were processed through CIMPAQ (FIGS. 9E and 9F). The single wavelength fluorescence images were converted from 16-bit format to 8-bit format. The MATLAB Image Processing Toolbox was utilized to segment the images in order to identify the nuclei and cytoplasm. The number of nuclei within each segmented cell was quantified to produce a histogram of nuclei per cell for each image (FIG. 9G). All segmented cells that were coincident with the image edge were disregarded.
Image analysis using CIMPAQ: From the histogram of nuclei per cell count, the ratio of the number of multinucleate cells to the number of mononucleate cells and the ratio of the number of binucleate cells to the number of mononucleate cells were computed. Multinucleate cells are defined as cells that contain >2 nuclei. The distribution of both ratios across multiple wells were simultaneously visualized using a scatter plot, with the ratio of multinucleate cells to mononucleate cells plotted on the x-axis and the ratio of binucleate cells to mononucleate cells plotted on the y-axis (FIGS. 9H and 9I). Other information such as the average number of nuclei per cell, the mean nuclear area, and the normalized histogram with respect to total cell number were also computed.
Hit identification using CIMPAQ: Compounds that generate an increase in the number of multinucleate (>2 nuclei/cell) cells are considered cytokinesis inhibitors. Because nearly all cultured cells, including Dictyostelium, have a low background (typically <5% for WT) of non-mononucleate cells, CIMPAQ spreads the data for each sample by determining the ratio (bi:mono) of binucleate (2 nuclei/cell) to mononucleate cells and the ratio (multi:mono) of multinucleate (>2 nuclei/cell) to mononucleate cells. These two ratios then define a set of Cartesian coordinates, describing the effect of each compound on a given cell-line. The coordinates for each compound are plotted on a two-dimensional graph. CIMPAQ fits the control data to a two-dimensional Gaussian distribution (FIG. 9H) and determines the contour lines for two standard deviations (2SD), 3SD, etc. from the control mean (FIG. 9I).
Hit compounds are rank-ordered based on how many SDs away they are from the untreated wells.

[2] = biological target: EGF receptor tyrosine kinase (Homo sapiens, UniProt P00533); settings: cited from earlier work
[3] = Degradation/stability of carbamate-7 in solvent (TLC, HPLC); type: physicochemical; settings: standing in methanol
Experimental: Upon standing in methanol, the product obtained above degraded within 2.5 hr, as determined by TLC analysis. Degradation appeared more rapid in DMSO, the solvent used to generate stock solutions for biological evaluation. Thus, carbamate-7 obtained either by chemical synthesis or commercially from ChemBridge was dissolved in DMSO (1 mg/mL), and a time course to study its degradation was initiated immediately upon solvation. To stop the degradation reaction such that the product distribution could be captured at early time points, aliquots (40 μL) were rapidly frozen into Eppendorf tubes incubating on dry ice. HPLC analysis on a Beckman Gold Nouveau HPLC System was performed on each sample immediately upon thawing. Carbamate-7 (5180622) degradation products were eluted at 3 mL/min from a Grace Alltima C18 column (length=53 mm, ID=7 mm, particle size=3 μM) over a linear gradient (5:95 acetonitrile/100 mM NH4OAc (pH 6.8) to 100% 100 mM NH4OAc (pH 6.8) over 15 min).
Comparison of the urea product to authentic N,N′-Bis(3,4-dichlorophenyl) urea was performed using a linear gradient (5:95 acetonitrile/100 mM NH4OAc (pH 6.8) to 100% 100 mM NH4OAc (pH 6.8) over 5 min). […] Confirmation of the urea was further confirmed via characteristic fragmentation patterns determined using product ion (MS-MS) analysis monitoring in negative ion mode (FIG. 11C).

Dictyostelium cells = assay: Micropipette aspiration cortical tension, Dictyostelium; type: cell-based, Dictyostelium discoideum; settings: acute treatment; 700 μM printed
Experimental: (§1) Micropipette aspiration was used for cortical tension and creep response measurements. Confocal imaging was performed on a Zeiss 510 Meta with a 63× (numerical aperture [NA] 1.4) objective (Carl Zeiss, Jena, Germany). Epifluorescence and TIRF imaging was performed in a 22° C. temperature controlled room with an Olympus IX81 microscope using a 40× (NA 1.3) or 60× (NA 1.49) objective and a 1.4× optovar (Olympus, Center Valley, Pa.), as previously described. Image analysis was performed with ImageJ (rsb.info.nih.gov/ij).
The instrumental and experimental setups have been previously described (Effler J C, et al., 2006; Kee Y-S, et al., 2013). Micropipette aspiration assays were all carried out in growth media with 0.1% DMSO. For cortical tension measurements of Dictyostelium cells, pressure was applied to the cell cortex with a micropipette (2-3 m radius, Rp) to the equilibrium pressure (ΔP) where the length of the cell inside the pipette (Lp) was equal to Rp. The effective cortical tension (Teff) was calculated by applying the Young-Laplace equation: ΔP=2Teff(1/Rp-1/Rc), where Rc is the radius of the cell and ΔP is the equilibrium pressure when Lp=Rp (Derganc J, et al., 2000; Octtaviani E, et al., 2006). For creep tests on mammalian strains, a constant aspiration stress was applied over 60 s. The micropipette radius was 3.5-4.5 m. For quantification, the Lp/Rp ratio values was measured every two seconds and plotted as a function of time. A10.7 and HEK293 cells could only be aspirated at a low pressure range (0.15 nN/μm^2), while HPDE, ASPC-1, and HL-60 cells could be aspirated at higher pressure ranges (0.25 nN/μm^2) because they were stiffer.

myosin II = biological target: T1, myosin II (Dictyostelium discoideum, UniProt P08799); assay: Myosin II cortical localization by SIM, TIRF and confocal imaging; type: cell-based; settings: 500 nM time course
T1 construct: expressed in transfected cells; host or cells: Dictyostelium discoideum myoII null cells rescued with GFP-myosin II
Experimental: as §1
Imaging conditions during primary screen are described above. All other image analysis was performed as previously described (Kee Y S, et al., 2012). Cells were transferred from Petri dishes (with 0.1% DMSO incubation in growth media of 4 hrs) to imaging chambers and allowed to adhere for 20 min in growth media with 0.1% DMSO. After the cells adhered, the growth media was replaced with 2-(N-morpholino)ethanesulfonic acid (MES) starvation buffer (50 mM MES, pH 6.8, 2 mM MgCl2, 0.2 mM CaCl2) with 0.1% DMS. Confocal imaging was performed on aZeiss 510 Meta with a 63× (numerical aperture [NA] 1.4) objective (Carl Zeiss, Jena, Germany). Epifluorescence and TIR imaging was performed in a 22° C. temperature controlled room with an Olympus IX81 microscope using a 40× (NA 1.3) or 60× (NA […]) objective and a 1.4× optovar (Olympus, Center Valley, Pa.), as previously described. Image analysis was performed with ImageJ (rsb.info.nih.gov/ij). Many data sets were independently analyzed by multiple investigators.

Chain of EGF receptor tyrosine kinase (P00533 25-1210): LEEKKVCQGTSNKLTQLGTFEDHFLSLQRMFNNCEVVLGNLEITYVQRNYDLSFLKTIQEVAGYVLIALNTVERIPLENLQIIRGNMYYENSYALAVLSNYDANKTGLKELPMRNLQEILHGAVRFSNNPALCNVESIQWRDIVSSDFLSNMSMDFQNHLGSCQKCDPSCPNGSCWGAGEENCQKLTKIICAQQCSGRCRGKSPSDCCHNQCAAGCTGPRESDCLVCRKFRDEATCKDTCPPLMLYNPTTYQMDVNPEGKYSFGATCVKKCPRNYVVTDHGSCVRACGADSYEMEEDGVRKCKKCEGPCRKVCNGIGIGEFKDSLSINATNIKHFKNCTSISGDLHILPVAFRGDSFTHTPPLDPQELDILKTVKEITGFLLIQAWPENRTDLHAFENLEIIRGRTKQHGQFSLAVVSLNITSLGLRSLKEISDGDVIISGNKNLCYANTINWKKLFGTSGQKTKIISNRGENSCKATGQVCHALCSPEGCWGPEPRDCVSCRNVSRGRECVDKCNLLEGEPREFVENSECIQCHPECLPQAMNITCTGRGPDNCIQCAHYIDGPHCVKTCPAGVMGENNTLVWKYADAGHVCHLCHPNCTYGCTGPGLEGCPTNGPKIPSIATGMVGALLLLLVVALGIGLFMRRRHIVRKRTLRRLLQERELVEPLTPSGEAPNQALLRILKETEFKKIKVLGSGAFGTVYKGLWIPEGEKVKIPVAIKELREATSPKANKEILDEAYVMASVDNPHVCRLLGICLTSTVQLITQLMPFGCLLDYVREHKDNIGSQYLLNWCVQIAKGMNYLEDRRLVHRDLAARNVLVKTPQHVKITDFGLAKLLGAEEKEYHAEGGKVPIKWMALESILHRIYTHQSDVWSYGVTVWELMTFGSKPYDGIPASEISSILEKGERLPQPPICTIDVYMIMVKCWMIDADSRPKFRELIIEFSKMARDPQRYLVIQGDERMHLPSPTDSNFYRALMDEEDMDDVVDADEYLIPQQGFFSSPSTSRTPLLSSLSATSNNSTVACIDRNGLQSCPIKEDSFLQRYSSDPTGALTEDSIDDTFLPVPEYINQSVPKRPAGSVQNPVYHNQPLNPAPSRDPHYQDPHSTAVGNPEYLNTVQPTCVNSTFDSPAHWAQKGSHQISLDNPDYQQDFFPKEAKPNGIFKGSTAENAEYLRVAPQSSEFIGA
T1 sequence (P08799 whole entry): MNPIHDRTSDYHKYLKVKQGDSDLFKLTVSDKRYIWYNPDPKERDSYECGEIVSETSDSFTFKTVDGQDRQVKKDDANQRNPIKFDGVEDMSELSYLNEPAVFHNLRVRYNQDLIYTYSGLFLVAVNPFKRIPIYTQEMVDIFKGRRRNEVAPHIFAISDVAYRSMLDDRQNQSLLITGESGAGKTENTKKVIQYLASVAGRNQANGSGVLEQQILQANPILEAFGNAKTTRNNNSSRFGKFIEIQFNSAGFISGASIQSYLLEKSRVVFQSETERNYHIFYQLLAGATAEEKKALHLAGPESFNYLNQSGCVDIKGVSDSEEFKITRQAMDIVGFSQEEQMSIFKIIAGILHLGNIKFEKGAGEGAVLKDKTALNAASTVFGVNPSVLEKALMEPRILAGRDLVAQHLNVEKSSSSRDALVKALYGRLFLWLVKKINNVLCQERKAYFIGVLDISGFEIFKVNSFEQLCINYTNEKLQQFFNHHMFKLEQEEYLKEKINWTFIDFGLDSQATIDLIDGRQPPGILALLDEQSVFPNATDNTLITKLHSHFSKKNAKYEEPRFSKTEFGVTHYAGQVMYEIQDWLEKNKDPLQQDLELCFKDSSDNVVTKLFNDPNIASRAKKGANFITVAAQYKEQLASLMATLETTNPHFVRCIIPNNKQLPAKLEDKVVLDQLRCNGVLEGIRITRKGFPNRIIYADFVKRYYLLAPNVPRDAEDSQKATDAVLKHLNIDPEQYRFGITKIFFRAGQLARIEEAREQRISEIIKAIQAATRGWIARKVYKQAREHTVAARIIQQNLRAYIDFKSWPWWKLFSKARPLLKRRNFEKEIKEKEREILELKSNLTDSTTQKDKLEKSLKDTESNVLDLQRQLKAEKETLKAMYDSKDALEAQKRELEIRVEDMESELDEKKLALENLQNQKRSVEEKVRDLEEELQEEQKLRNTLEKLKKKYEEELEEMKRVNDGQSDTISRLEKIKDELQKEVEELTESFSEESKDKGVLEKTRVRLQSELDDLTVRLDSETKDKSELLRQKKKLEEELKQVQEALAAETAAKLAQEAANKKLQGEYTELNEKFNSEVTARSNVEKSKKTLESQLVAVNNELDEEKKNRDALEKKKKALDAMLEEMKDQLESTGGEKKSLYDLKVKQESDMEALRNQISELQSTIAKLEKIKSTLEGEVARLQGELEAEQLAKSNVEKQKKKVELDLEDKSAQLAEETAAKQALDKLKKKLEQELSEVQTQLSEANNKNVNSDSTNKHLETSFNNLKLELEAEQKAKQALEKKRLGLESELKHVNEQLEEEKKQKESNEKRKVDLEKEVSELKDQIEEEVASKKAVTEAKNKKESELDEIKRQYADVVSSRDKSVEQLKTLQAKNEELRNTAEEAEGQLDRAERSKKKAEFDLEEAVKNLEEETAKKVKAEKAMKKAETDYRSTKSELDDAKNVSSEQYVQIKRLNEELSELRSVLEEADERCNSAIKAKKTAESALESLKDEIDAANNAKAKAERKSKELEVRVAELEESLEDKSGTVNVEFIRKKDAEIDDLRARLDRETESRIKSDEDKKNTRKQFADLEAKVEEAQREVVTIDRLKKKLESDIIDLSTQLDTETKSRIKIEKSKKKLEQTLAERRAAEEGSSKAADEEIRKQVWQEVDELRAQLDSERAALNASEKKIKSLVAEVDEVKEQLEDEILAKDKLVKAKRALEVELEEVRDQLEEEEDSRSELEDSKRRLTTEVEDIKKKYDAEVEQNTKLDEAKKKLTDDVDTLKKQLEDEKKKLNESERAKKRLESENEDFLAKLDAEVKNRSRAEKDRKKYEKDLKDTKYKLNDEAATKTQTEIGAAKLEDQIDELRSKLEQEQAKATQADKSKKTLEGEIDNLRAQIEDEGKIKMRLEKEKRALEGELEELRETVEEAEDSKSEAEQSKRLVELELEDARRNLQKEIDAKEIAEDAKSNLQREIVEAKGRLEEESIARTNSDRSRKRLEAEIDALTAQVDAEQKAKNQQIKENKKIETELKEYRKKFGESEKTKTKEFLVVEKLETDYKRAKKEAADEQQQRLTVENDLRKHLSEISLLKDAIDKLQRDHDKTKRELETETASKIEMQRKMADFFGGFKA

For `CCCCCCCCCCCCCCCC(=O)OC(CC(=O)O)C[N+](C)(C)C.[Cl-]` (racemic) [Palmitoyl-DL-carnitine Cl], which “CIMPAQ hit category, kinase inhibitor collection” value [1] is on record?
The value was “Lethal at 10 μM”.

Which “CIMPAQ hit category, kinase inhibitor collection” value [1] does the source give for `O=C(O)c1cc(NCc2cc(O)ccc2O)ccc1O` [2-Hydroxy-5-(2,5-dihydroxybenzylamino) benzoic acid] here?
Its value is “Lethal at 10 μM”.

For `C/C(CCc1ccccc1)=N\Nc1ccc([N+](=O)[O-])cc1` [4-phenyl-2-butanone (4-nitrophenyl) hydrazone], which cell division ([1]; Dictyostelium Drug Discovery Platform (3DP)) is on record?
Its cell division is “inhibit cell division”.

For `N#CC(=Cc1ccc2[nH]ccc2c1)C(N)=C(C#N)C#N` [AG-370], which “CIMPAQ hit category, kinase inhibitor collection” value [1] is on record?
The value was “Lethal at 5 μM”.

Which “CIMPAQ hit category, ion channel collection” value [1] does the source give for `CNc1ccc2oc(C[C@H]3O[C@@]4(CC[C@H]3C)O[C@H]([C@H](C)C(=O)c3ccc[nH]3)[C@H](C)C[C@H]4C)nc2c1C(=O)O` [Antibiotic A-23187] here?
The value was “Lethal at 5 μM”.

With `CC(C)COCC(CN(Cc1ccccc1)c1ccccc1)N1CCCC1` (stereo not drawn) [Bepridil] as the molecule, how does the “CIMPAQ hit category, ion channel collection” value [1] read?
The value was “Lethal at 5 μM”.

With `COC(=O)/C=C/c1cc(O)ccc1O` [Erbstatin analog] as the molecule, how does the “known IC50” value [2] read?
The value was “inhibitor; known IC50 (0.5 μg/ml”.

Which “CIMPAQ hit category, kinase inhibitor collection” value [1] does the source give for `COc1cccc(-c2cc(=O)c3ccccc3o2)c1N` [PD-98059] here?
The value was “Lethal at 5 μM”.

Which “CIMPAQ hit category, kinase inhibitor collection” value [1] does the source give for `Cc1ccc(-c2nn(C(C)(C)C)c3ncnc(N)c23)cc1` [PP1] here?
Its value is “Lethal at 5 μM”.

Which “CIMPAQ hit category, ion channel collection” value [1] does the source give for `COc1ccc(CCCOC(Cn2ccnc2)c2ccc(OC)cc2)cc1` (stereo not drawn) [SKF-96365] here?
The value was “Lethal at 5 μM”.

With `CC(C)(C)c1cc(C=C(C#N)C#N)cc(C(C)(C)C)c1O` [Tyrphostin 9] as the molecule, how does the “CIMPAQ hit category, kinase inhibitor collection” value [1] read?
The value was “Lethal at 5 μM”.

For `CC(=O)c1ccc(OC(=O)Nc2ccc(Cl)c(Cl)c2)cc1` [carbamate-7, 4-acetylphenyl-(3,4-dichlorophenyl) carbamate], which time to degradation [3] is on record?
Its time to degradation is no more than 2.5 h.

And the “increase in cortical tension” value (Dictyostelium cells)?
Its value is 1.4 fold.

Which “identification as early mitotic inhibitor (average nuclear area greater than 28 pixels)” value [1] does the source give for `COC(=O)Nc1nc2ccc(C(=O)c3cccs3)cc2[nH]1` [nocodazole] here?
The value was “reliably identified”.

For `O=C(Nc1ccc(Cl)c(Cl)c1)Nc1ccc(Cl)c(Cl)c1` [urea, N,N′-bis(3,4-dichlorophenyl)urea], which “changes in myosin II cortical distribution (TIRF)” value (myosin II) is on record?
The value was “Neither 3,4-DCA nor the urea result in changes in myosin II cortical distribution”.
